The values below are quoted from earlier work in patent US9260760B2, “Method for determining complete response to anticancer therapy” (Board of Regents, The University of Texas System, priority 2012, dated 2016).

Where two headings read alike, the source gives them in different places. A value given as a limit tells only on which side of the number the result lay.

Series [1] has as its system metastatic colorectal cancer. To be noted: cited from earlier work.
The conditions of series [2]: cited from earlier work.

On to `CCCCCOC(=O)Nc1nc(=O)n([C@@H]2O[C@H](C)[C@@H](O)[C@H]2O)cc1F` [Capecitabine, capecitabine], for which, in series [1] (first-line therapy), the “Complete response (%)” value is recorded as 3%, the “Median OS (months)” value was 12.4-13.2 months, the “Median PFS (months)” value is listed as 4.2 months and the “Response rate (%)” value is reported as 19-25%. For the same compound, the “Stable disease (%)” value in series [1] (first-line therapy) is recorded as 50%. Further, the “time at which half of the patients experienced tumor progression” value in series [1] (monotherapy capecitabine) is 2-4 months. Further, in series [1] (second-line therapy), the “Complete response (%)” value is on record as 0%, the “Median OS (months)” value is recorded as 12.2 months, the “Median PFS (months)” value was 2.1 months and the “Response rate (%)” value is recorded as 0%. For the same compound, in series [1] (second-line therapy), the “Stable disease (%)” value is reported as 50%. Also, in series [2] (capecitabine at 1250 mg/m2/d), the “grade 3 HFS” value was no more than 17%, the “patients with HFS onset within six weeks” value is given as 93% and the “patients with most severe HFS episode within six weeks” value is on record as 67.9%. In series [2] (capecitabine starting at 750-1000 mg/m2/d bid with irinotecan (Patt et al., 2004)), the HFS was 35%. The “incidence of grade ⅔ HFS” value in series [2] (earlier study, capecitabine 1000 mg/m2/d bid (Lin et al., 2002)) was 34.2%.
